Measured values reported in PMC9953885 (Biosensors, 2023).
pIC50: −log10 of the molar value. Counter-ions that a name gives are not always drawn.

Columns and labels:
[1] = target: T1, human pancreatic lipase (hPL) (Homo sapiens, UniProt P16233); experiment: RLE-based fluorescence hydrolysis assay, dose-inhibition; format: biochemical
T1 construct: gene PNLIP
T1 sequence (P16233 17-465): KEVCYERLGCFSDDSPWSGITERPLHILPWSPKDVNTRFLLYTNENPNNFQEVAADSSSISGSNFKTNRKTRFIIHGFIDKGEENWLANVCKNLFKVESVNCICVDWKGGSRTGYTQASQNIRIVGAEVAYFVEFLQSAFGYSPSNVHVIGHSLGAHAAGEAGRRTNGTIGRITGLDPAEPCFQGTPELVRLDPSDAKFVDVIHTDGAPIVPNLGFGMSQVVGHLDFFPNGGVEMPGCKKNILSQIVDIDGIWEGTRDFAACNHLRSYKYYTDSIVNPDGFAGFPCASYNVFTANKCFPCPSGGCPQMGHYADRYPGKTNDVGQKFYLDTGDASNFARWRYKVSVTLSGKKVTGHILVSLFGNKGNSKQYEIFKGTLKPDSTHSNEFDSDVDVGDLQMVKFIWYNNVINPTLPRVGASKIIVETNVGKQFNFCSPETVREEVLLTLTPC

[2] = target: T1, human pancreatic lipase (hPL); conditions: 10 µM; inhibitor
[3] = target: T1, human pancreatic lipase (hPL); experiment: Michaelis-Menten kinetics of fluorogenic substrate hydrolysis (Km); format: biochemical

pIC50 [1]	% of control remaining [2]	Km [3]	Structure (SMILES)
6.24	4.20%		CC(C)c1cc2c(c(O)c1O)[C@@]13CCCC(C)(C)[C@@H]1C[C@@H]2OC3=O [h9, carnosol]
4.81	44.04%		CNC(=O)c1cc(Oc2ccc(NC(=O)Nc3ccc(Cl)c(C(F)(F)F)c3)cc2)ccn1 [f1, sorafenib tosylate]
5.87	5.25%		COc1ccc(-c2cc(=O)c3c(O)cc(O)c(-c4cc(-c5cc(=O)c6c(O)cc(OC)cc6o5)ccc4OC)c3o2)cc1 [h10, sciadopitysin]
		10.4 µM	CCCCCCCCCCCC(=O)Oc1ccc2nc3ccc(=O)cc-3oc2c1 [RLE, 3-oxo-3H-phenoxazin-7-yl dodecanoate]
	96.04%		CN[C@H](CC(C)C)C(=O)N[C@H]1C(=O)N[C@@H](CC(N)=O)C(=O)N[C@H]2C(=O)N[C@H]3C(=O)N[C@H](C(=O)N[C@H](C(=O)O)c4cc(O)cc(O)c4-c4cc3ccc4O)[C@H](O)c3ccc(c(Cl)c3)Oc3cc2cc(c3O[C@@H]2O[C@H](CO)[C@@H](O)[C@H](O)[C@H]2O[C@H]2C[C@](C)(N)[C@H](O)[C@H](C)O2)Oc2ccc(cc2Cl)[C@H]1O [Vancomycin]
	86.11%		NCCc1ccc(O)c(O)c1 [3-Hydroxytyramine hydrochloride]
	90.65%		COc1c2occc2cc2ccc(=O)oc12 [8-Methoxypsoralen]
	56.43%		O=c1c(O)c(-c2cc(O)c(O)c(O)c2)oc2cc(O)cc(O)c12 [Myricetin]
	98.83%		Cc1cc(NS(=O)(=O)c2ccc(N)cc2)no1 [Sulfamethoxazole]
	118.41%		CC(C)(O/N=C(\C(=O)N[C@@H]1C(=O)N2C(C(=O)[O-])=C(C[n+]3ccccc3)CS[C@H]12)c1csc(N)n1)C(=O)O [CeftazidiMe]
	91.12%		C[C@@H]1O[C@@H](Oc2c(-c3cc(O)c(O)c(O)c3)oc3cc(O)cc(O)c3c2=O)[C@H](O)[C@H](O)[C@H]1O [Myricitrin]
5.25	4.05%		O=C(c1ccc(OCCN2CCCCC2)cc1)c1c(-c2ccc(O)cc2)sc2cc(O)ccc12 [d1, raloxifene]

Structure (SMILES)	pIC50 [1]	% of control remaining [2]	Km [3]
Oc1ccc2c(c1)OCO2 [Sesamol]		103.95%	
